Data taken from patent US20130137767A1, “Methods and Compositions for Treating Arthritis with Docosahexaenoic Acid” (DSM IP ASSETS B.V., priority 2010, published 2013).

Columns and labels:
Type in all cases: in vivo, Male DBA/1O1aHsd mice
anti-collagen antibodies [1] = experiment: CIA-EE (Example 1): anti-collagen antibody production; settings: measured day 21 and day 45, vs OA-EE placebo
Description: The appropriate ethyl esters were blended into the base diet to provide approximately 2500 and 5000 mg/kg polyunsaturated fatty acid (PUFA) per day. The human equivalent doses (HED) were approximately 12 g/day and 22 g/day, respectively. The 2500 mg/kg EE diets contained the following fat blend: 1 part flax, 12 parts HCOC and 23 parts HO-SAFF. The 5000 mg/kg EE diets contained a fat blend consisting of: 1 part flax, 5 parts HCOC and 20 parts HO-SAFF. All study diets provided a total of 7% fat. Animals were fed study diets for approximately 30 days prior to the first collagen injection at day 0 and remained on the diets until study termination (day 45). Animals in the No Disease control and Dexamethasone groups were fed the diet containing OA-EE. Following a second collagen injection on day 21, arthritis severity was scored daily. Blood samples were collected at day 21 and day 45. Joints, 6 per an animal, were collected for histology and pathology on day 45.
Anti-collagen antibody production was measured prior to the antigen challenge (day 21) and at study termination (day 45). […] Means (n=5)±SD. *p<0.05**p<0.01.

[2] = test system: Collagen-Induced Arthritis (CIA); experiment: CIA EE vs. TG (Example 2): paw, knee and six-joint histopathology; settings: day 45
Description: (§1) Male DBA/1O1aHsd mice were enrolled, quarantined, and feed study diets following the protocols described in Example 1 (CIA-EE Study). EE and TG oils were blended into the base diet to provide 2500 mg/kg PUFA per day (HED approximately 12 g/day). A single dose of PUFA per day (HED approximately 5 g/day). The 1000 mg/kg DHA-EE dose was equivalent to the amount of DHA administered in the DHA/EPA-EE blend. The fat blend the 2500 mg/kg EE diets consisted of approximately: 1 part flax, 12 parts HCOC and 23 parts HO-SAFF; 1000 mg/kg EE diet: 1 part flax, 12 parts HCOC and 32 parts HO-SAFF; 2500 mg/kg DHASCO® oil diet: 1 part flax, 8 parts HCOC, 17 parts HO-SAFF and 15 parts soybean oil; 2500 mg/kg DHA-S oil diet: 1 part flax, 5 parts HCOC, 16 parts HO-SAFF and 6 parts soybean oil. 2500 mg/kg DHA/EPA (Nordic Naturals fish oil) diet: 1 part flax, 21 parts HCOC, 18 parts HO-SAFF and 13 parts soybean oil. The monounsaturate control animals received a fat blend of 1 part flax, 7 parts HCOC and 25 parts HO-SAFF. All study diets provided a total of 7% fat. Animals in the No Disease control and Dexamethasone groups were fed the diet containing OA-EE. Mice received collagen injections on day 0 and day 21, as described previously. Blood samples were collected at day 21 and day 45. At day 45, joints were collected for histology and pathology. Placebo-treated diseased animals had histopathology changes, consistent with those seen in type II collagen induced arthritis, in most joints, with scores ranging from normal to severe. Microscopic alteration included infiltration of synovium and periarticular tissue with neutrophils and mononuclear inflammatory cells (inflammation), marginal zone pannus and bone resorption and cartilage damage (proteoglycan loss, chondrocyte death and collagen matrix destruction). Four-paw, knee and joint parameters were assigned a quantitative score 0=normal, 1=minimal, 2=mild, 3=moderate, 4=marked, 5=severe and a total score was determined per animal.

[3] = CIA EE vs. TG (Example 2): serum phospholipid fatty acid levels by FAME analysis
Description: as §1, with “pathology.” for “pathology. Placebo-treated diseased animals had histopathology changes, consistent with those seen in type II collagen induced arthritis, in most joints, with scores ranging from normal to severe. Microscopic alteration included infiltration of synovium and periarticular tissue with neutrophils and mononuclear inflammatory cells (inflammation), marginal zone pannus and bone resorption and cartilage damage (proteoglycan loss, chondrocyte death and collagen matrix destruction). Four-paw, knee and joint parameters were assigned a quantitative score 0=normal, 1=minimal, 2=mild, 3=moderate, 4=marked, 5=severe and a total score was determined per animal.”
Serum phospholipid fatty acid levels were determined by FAME analysis (FIG. 11). Treatment with DHASCO® or DHA-S oil elevated serum DHA levels 3-4 fold (p<0.001), as compared to the monounsaturated (placebo) control. DHA-EE treatment elevated DHA levels 3-5 fold (p<0.001), as compared to the OA-EE (placebo) control. DPAn6-TG and EE elevated DPAn6 levels 3-4 fold (p<0.001), as compared to the monounsaturated or OA-EE (placebo) control. Serum EPA levels were elevated approximately 30 fold (p<0.001) when fish oil or DHA/EPA-EE was administered, as compared to the monounsaturated or OA-EE (placebo) control. Serum EPA levels were also elevated by treatment with DHASCO® (p<0.001), DHA-S (p<0.05), or with DHA-EE (p<0.001), as compared to the monounsaturated or OA-EE (placebo) control. […] Treatment with either DHASCO® or DHA-EE (2500 mg/kg) reduced ARA levels by approximately 90% (p<0.001), as compared to the monounsaturated or OA-EE (placebo) control. […] Serum ARA levels were reduced to a lesser degree by DHA-S (24%, p<0.001), fish oil (37%, p<0.001) and DHA/EPA-EE (49%, p<0.001), as compared to the monounsaturated or OA-EE (placebo) control. Data shown represents 3 pooled animals per group. Means±SD. *p<0.05 ***p<0.001.

anti-collagen antibodies [4] = experiment: CIA EE vs. TG (Example 2): serum anti-collagen antibodies; settings: for serum anti-collagen antibodies: day 21
Description: as §1, with “pathology.” for “pathology. Placebo-treated diseased animals had histopathology changes, consistent with those seen in type II collagen induced arthritis, in most joints, with scores ranging from normal to severe. Microscopic alteration included infiltration of synovium and periarticular tissue with neutrophils and mononuclear inflammatory cells (inflammation), marginal zone pannus and bone resorption and cartilage damage (proteoglycan loss, chondrocyte death and collagen matrix destruction). Four-paw, knee and joint parameters were assigned a quantitative score 0=normal, 1=minimal, 2=mild, 3=moderate, 4=marked, 5=severe and a total score was determined per animal.”
A reduction in serum anti-collagen antibodies also correlated with a reduction in disease severity. […] (FIG. 12).

CC/C=C\C/C=C\C/C=C\C/C=C\C/C=C\C/C=C\CCC(=O)OCC [DHA-EE]
level of plasma anti-collagen antibodies (anti-collagen antibodies [1]; 2500 mg/kg): reduced the level of anti-collagen antibodies
level of plasma anti-collagen antibodies (anti-collagen antibodies [1]; 5000 mg/kg): reduced the level of anti-collagen antibodies
knee histopathology parameters ([2]; 1000 mg/kg): not significantly affected
paw histopathology parameters ([2]; 1000 mg/kg): not significantly affected
six-joint histopathology parameters ([2]; 1000 mg/kg): not significantly affected
six-joint histopathology parameters ([2]; 2500 mg/kg PUFA, FIG. 10): significantly reduced towards normal
paw histopathology parameters (inflammation, pannus, cartilage damage, bone damage) ([2]; 2500 mg/kg PUFA, vs placebo control, FIG. 10): reduced
serum ARA levels, reduction vs OA-EE (placebo) control ([3]; 1000 mg/kg): 77%
serum ARA levels, reduction vs monounsaturated or OA-EE (placebo) control ([3]; 2500 mg/kg PUFA): approximately 90%
serum EPA levels, elevation vs monounsaturated or OA-EE (placebo) control ([3]; 2500 mg/kg PUFA (DHA-EE dose not stated)): elevated
serum DHA levels, elevation vs OA-EE (placebo) control ([3]; dose not stated (1000 and 2500 mg/kg tested)): 3-5 fold
serum anti-collagen antibodies (anti-collagen antibodies [4]; 1000 mg/kg): significantly reduced
serum anti-collagen antibodies (anti-collagen antibodies [4]; 2500 mg/kg PUFA, FIG. 12): significantly reduced
serum anti-collagen antibody levels (anti-collagen antibodies [4]; day 45, 2500 mg/kg PUFA, FIG. 12): significantly reduced
